Reference: patent US20210307376A1, “Compositions Comprising Nicotine and/or Nicotine Salts and Ultrasonic Aerosolisation of Compositions Comprising Nicotine and/or Nicotine Salts” (priority 2020, published 2021)

How the values were obtained:
[1] = cited from earlier work; for P (octanol:water partitioning coefficient): [solute in octanol]:[solute in aqueous buffer]; for P (octanol:water partitioning coefficient) / % Aqueous: phosphate buffer; for P (octanol:water partitioning coefficient) / logP / % Aqueous: pH 7.4; for logP: octanol : aqueous phosphate buffer; for % Nonpolar: share of solute in octanol phase
nicotinic receptors = settings: inhaled; compared to other nicotine salts such as nicotine salicylate; cited from earlier work
[2] = P 0.69 versus P 0.00145
Excerpt: The partitioning coefficient can be used as a measure of lipid solubility.

| Compound | P (octanol:water partitioning coefficient) [1] | logP [1] | % Aqueous [1] | % Nonpolar [1] | increase in proportion of nicotine binding sites (nicotinic receptors) | increase of partitioning coefficient P in comparison to levulinic acid [2] |
| --- | --- | --- | --- | --- | --- | --- |
| Nicotine Levulinate | 0.69 | −0.16 | 59% | 41% | 20-50% | 500 fold |
| CN1CCCC1c1cccnc1 (centres unmarked) [Nicotine] | 2.82 | 0.45 | 26% | 74% |  |  |
| CC(=O)CCC(=O)O [Levulinic Acid] | 0.00145 | −2.84 | 99.85% | 0.15% |  |  |
